Earlier results as cited in US20200138880A1, “BACTERIA-BASED GEL COMPOSITIONS FOR TOPICAL APPLICATIONS AND USES THEREOF” (PROBIOTICAL S.P.A., priority 2016, published 2020).

Conditions: well known; free melatonin not bound to globulins

## COc1ccc2[nH]cc(CCNC(C)=O)c2c1 [melatonin]
  melatonin concentration in saliva as share of its plasma levels: 24%-33%
